Laboratory results as given in patent EP0573218B1, “4-Carboxyimidazoles as angiotensin II antagonists and their thrapeutic use” (SANKYO COMPANY LIMITED, priority 1992, dated 1993).

System: All receptor
Assay: Inhibition of pressor response to intravenous angiotensin II in anaesthetised rats (AII receptor blocking activity)
Type: in vivo
Settings: i.v.; dose inhibiting by fifty percent the pressor response to 50 ng/kg i.v. angiotensin II; angiotensin II injected two minutes after test compound; male Wister-Imamichi rats
Description: Evaluation of All receptor blocking activity by Inhibition of pressor response to angiotensin II
The biological activity of each compound was assessed by determining the dose required to inhibit the pressor response to intravenous angiotensin II by fifty percent (ID50) in rats. Male Wister-Imamichi rats, each weighing 300 to 400 g, were anaesthesized by intraperitoneal injection of 100 mg/Kg of sodium thiobutabarbital [Inactin (trade name)] and two cannulae were inserted: one into the femoral artery for measuring blood pressure and the other into the femoral vein for injecting drugs. Fifty ng/kg of angiotension II were intravenously administered at intervals of about 10 minutes, and the elevation of blood pressure (normally about 50 mmHg) was observed. After constant pressor responses to angiotensin II were obtained, a test compound was intravenously administered. Two minutes later, angiotension II was again injected, and the inhibitory effect of the test compound was estimated. The percent inhibitions of the pressor response to angiotensin II by progressive increase of the test compound was used to calculate the value of ID50. Angiotensin II was used in this test dissolved in 0.5 % bovine serum albumin (BSA) and the test compounds were dissolved in 100% dimethyl sulphoxide (DMSO).

## COCc1nc(C(C)(C)O)c(C(=O)O)n1Cc1ccc(-c2ccccc2-c2nnn[nH]2)cc1 [Example 2, 4-(1-Hydroxy-1-methylethyl)-2-methoxymethyl-1-{4-[2-(tetrazol-5-yl)phenyl]phenyl}methylimidazole-5-carboxylic acid]
  ID50: 0.0066 mg/kg

## CCOCc1nc(C(C)(C)O)c(C(=O)O)n1Cc1ccc(-c2ccccc2-c2nnn[nH]2)cc1 [Example 6, 2-Ethoxymethyl-4-(1-hydroxy-1-methylethyl)-1-{4-[2-(tetrazol-5-yl)phenyl]phenyl}methylimidazole-5-carboxylic acid]
  ID50: 0.0059 mg/kg

## CCCOCc1nc(C(C)(C)O)c(C(=O)O)n1Cc1ccc(-c2ccccc2-c2nnn[nH]2)cc1 [Example 10, 4-(1-Hydroxy-1-methylethyl)-2-propoxymethyl-1-{4-[2-(tetrazol-5-yl)phenyl]phenyl}methylimidazole-5-carboxylic acid]
  ID50: 0.016 mg/kg

## COC(C)c1nc(C(C)(C)O)c(C(=O)O)n1Cc1ccc(-c2ccccc2-c2nnn[nH]2)cc1 (stereo not shown) [Example 14, 4-(1-Hydroxy-1-methylethyl)-2-(1-methoxyethyl)-1-{4-[2-(tetrazol-5-yl)phenyl]phenyl}methyl-imidazole-5-carboxylic acid]
  ID50: 0.074 mg/kg

## CSCc1nc(C(C)(C)O)c(C(=O)O)n1Cc1ccc(-c2ccccc2-c2nnn[nH]2)cc1 [Example 22, 4-(1-Hydroxy-1-methylethyl)-2-methylthiomethyl-1-{4-[2-(tetrazol-5-yl)phenyl]phenyl}methyl-imidazole-5-carboxylic acid]
  ID50: 0.025 mg/kg

## CSc1nc(C(C)(C)O)c(C(=O)O)n1Cc1ccc(-c2ccccc2-c2nnn[nH]2)cc1 [Example 25, 4-(1-Hydroxy-1-methylethyl)-2-methylthio-1-{4-[2-(tetrazol-5-yl)phenyl]phenyl}methyl-imidazole-5-carboxylic acid]
  ID50: 0.026 mg/kg

## CCSc1nc(C(C)(C)O)c(C(=O)O)n1Cc1ccc(-c2ccccc2-c2nnn[nH]2)cc1 [Example 27, 2-Ethylthio-4-(1-hydroxy-1-methylethyl)-1-{4-[2-(tetrazol-5-yl)phenyl]phenyl}methyl-imidazole-5-carboxylic acid]
  ID50: 0.019 mg/kg
